± gives the uncertainty stated by the source.
Assay: xn = mol fraction of the nth substance listed

CCC(=O)CC + CCCC[n+]1ccn(C)c1.F[P-](F)(F)(F)(F)F
298.15 K, 101.3 kPa
Settings | viscosity [mPa·s]
x1 = 0.1927 | 81.4 ± 3.9
x1 = 0.3014 | 42.7 ± 1.3
x1 = 0.5009 | 13.36 ± 0.34
x1 = 0.652 | 5.36 ± 0.14

OCCO + CCOS(=O)(=O)[O-].CC[n+]1ccn(C)c1
100 kPa, x1 = 1
Settings | viscosity [mPa·s]
298.15 K | 16.8 ± 0.4
303.15 K | 13.8 ± 0.3

O=S(=O)([N-]S(=O)(=O)C(F)(F)F)C(F)(F)F.[Li+] + CC#N
100 kPa
Settings | electrical conductivity [S/m] | viscosity [mPa·s]
293 K, x1 = 0.25 | – | 17.9 ± 1.3
303.15 K, x1 = 0.02067 | 2.79 ± 0.22 | –
303.15 K, x1 = 0.03069 | 3.23 ± 0.26 | –
308.15 K, x1 = 0.03069 | 3.34 ± 0.27 | –
308.15 K, x1 = 0.04052 | 3.85 ± 0.31 | –
308.15 K, x1 = 0.05013 | 4.25 ± 0.34 | –
308.15 K, x1 = 0.07787 | 4.14 ± 0.33 | –
313.15 K, x1 = 0.02067 | 3.03 ± 0.24 | –
313.15 K, x1 = 0.07787 | 4.35 ± 0.35 | –
318.15 K, x1 = 0.04052 | 4.16 ± 0.33 | –
318.15 K, x1 = 0.05013 | 4.64 ± 0.37 | –
323.15 K, x1 = 0.05957 | 4.97 ± 0.4 | –
328.15 K, x1 = 0.05013 | 4.99 ± 0.4 | –
328.15 K, x1 = 0.05957 | 5.14 ± 0.41 | –
333.15 K, x1 = 0.05957 | 5.28 ± 0.42 | –

CC(=O)[O-].CC[NH+](CC)CC + O
298.15 K, 101 kPa
Settings | viscosity [mPa·s]
x1 = 0.0288 | 6.32 ± 0.39
x1 = 0.042 | 8.12 ± 0.51
x1 = 0.0638 | 10.7 ± 0.68
x1 = 0.0847 | 13.35 ± 0.85
x1 = 0.1016 | 14.91 ± 0.96
x1 = 0.1457 | 18.6 ± 1.2
x1 = 0.2125 | 23.4 ± 1.5
x1 = 0.2349 | 24.4 ± 1.6
x1 = 0.2904 | 26.5 ± 1.8
x1 = 0.3254 | 27.4 ± 1.9
x1 = 0.367 | 27.8 ± 1.9
x1 = 0.4174 | 28.2 ± 1.9
x1 = 0.5162 | 27.6 ± 1.9
x1 = 0.5579 | 26.8 ± 1.8
x1 = 0.6055 | 26.1 ± 1.8
x1 = 0.6604 | 25.3 ± 1.7
x1 = 0.7243 | 24.2 ± 1.6
x1 = 0.7996 | 22.9 ± 1.5
x1 = 0.8899 | 22.7 ± 1.5
x1 = 1 | 24.1 ± 1.6

O=C(O)CC(O)(CC(=O)O)C(=O)O + CCCC[N+](CCCC)(CCCC)CCCC.[Cl-] + O
100 kPa, x2 = 0.1428, x1 = 0.1428
Settings | electrical conductivity [S/m] | viscosity [mPa·s]
293.15 K | 0.0384 ± 0.0039 | 620 ± 200
303.15 K | 0.0639 ± 0.0064 | 380 ± 100
313.15 K | 0.103 ± 0.01 | 245 ± 51
323.15 K | 0.161 ± 0.016 | 161 ± 25
333.15 K | 0.245 ± 0.024 | 108 ± 11

[N-]=C=S.[NH4+] + CCOS(=O)(=O)[O-].CC[n+]1ccn(C)c1
101 kPa
Settings | electrical conductivity [S/m] | viscosity [mPa·s]
298.15 K, x1 = 0.0235 | 0.373 ± 0.012 | 103.1 ± 1.7
298.15 K, x1 = 0.3025 | 0.285 ± 0.0091 | –
303.15 K, x1 = 0.565 | 0.375 ± 0.012 | 172.5 ± 4.4
308.15 K, x1 = 0.3025 | 0.439 ± 0.014 | 129.6 ± 2.6
308.15 K, x1 = 0.4042 | 0.436 ± 0.014 | 140.9 ± 3.1
313.15 K, x1 = 0.5997 | 0.59 ± 0.019 | –
318.15 K, x1 = 0.5205 | 0.656 ± 0.021 | 86.9 ± 1.4
318.15 K, x1 = 0.565 | 0.728 ± 0.023 | 85.3 ± 1.3
323.15 K, x1 = 0.565 | 0.868 ± 0.028 | 69.75 ± 0.94
333.15 K, x1 = 0.0235 | – | 26.54 ± 0.25
333.15 K, x1 = 0.3025 | – | 50.29 ± 0.58
333.15 K, x1 = 0.4042 | – | 53.18 ± 0.64
333.15 K, x1 = 0.5997 | – | 47.67 ± 0.62

OCCO + CC[n+]1ccn(C)c1.O=C([O-])C(F)(F)F
100 kPa, x1 = 1
Settings | viscosity [mPa·s]
293.15 K | 20.8 ± 0.4
298.15 K | 16.8 ± 0.4
303.15 K | 13.8 ± 0.3
313.15 K | 9.52 ± 0.2

OCCO + CCCC[n+]1ccn(C)c1.O=S(=O)([O-])C(F)(F)F
Settings | viscosity [mPa·s]
303.15 K, 100 kPa, x2 = 0 | 13.49 ± 0.55

CCCCCC[n+]1ccn(C)c1.O=[N+]([O-])c1cn[n-]c1 + CCCCCCCCCCCCCC[P+](CCCCCC)(CCCCCC)CCCCCC.O=S(=O)([N-]S(=O)(=O)C(F)(F)F)C(F)(F)F
Settings | viscosity [mPa·s]
283.15 K, 100 kPa, x2 = 0.899 | 820 ± 110

Source: the CheMixHub ionic liquid set
